Test results as given in the supplement of paper PMC10307832.

Experiments:
Test in all cases: relative viability (nuclei count vs DMSO), 5 days (fraction); higher = more cells survive
[1] = compound: C1CN(CCN1)C2=CC=C(C=C2)C3=CN4C(=C(C=N4)C5=CC=NC6=CC=CC=C56)N=C3 [DM3189] + CC(=O)c1c(C)c2cnc(Nc3ccc(N4CCNCC4)cn3)nc2n(C2CCCC2)c1=O [Palbociclib] (partner 0.5 µM)
Outline: (§1)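 Lung cancer cell lines, seeded in 1536-well plates, were treated the following day by pin tool with a single drug or with five library-drug doses (not always all listed) in √10 steps on top of a fixed anchor-drug dose. Cells were fixed and nuclei stained in one step after 5 days, and nuclei were counted. Relative viability is the nuclei count for treated wells divided by that for vehicle wells, reported as medians of duplicate plates.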

[2] = compound: C1CN(CCN1)C2=CC=C(C=C2)C3=CN4C(=C(C=N4)C5=CC=NC6=CC=CC=C56)N=C3 [DM3189] + CC(C)C[C@H](NC(=O)[C@H](Cc1ccccc1)NC(=O)c1cnccn1)B(O)O [Bortezomib] (partner 0.002 µM)
Outline: as §1

[3] = compound: C1CN(CCN1)C2=CC=C(C=C2)C3=CN4C(=C(C=N4)C5=CC=NC6=CC=CC=C56)N=C3 [DM3189] + CS(=O)(=O)CCNCc1ccc(-c2ccc3ncnc(Nc4ccc(OCc5cccc(F)c5)c(Cl)c4)c3c2)o1 [Lapatinib] (partner 2 µM)
Outline: as §1

[4] = compound: C1CN(CCN1)C2=CC=C(C=C2)C3=CN4C(=C(C=N4)C5=CC=NC6=CC=CC=C56)N=C3 [DM3189] + CS(=O)(=O)N1CCN(Cc2cc3nc(-c4cccc5[nH]ncc45)nc(N4CCOCC4)c3s2)CC1 [Pictilisib] (partner 1 µM)
Outline: as §1

[5] = compound: C1CN(CCN1)C2=CC=C(C=C2)C3=CN4C(=C(C=N4)C5=CC=NC6=CC=CC=C56)N=C3 [DM3189] + Nc1nc2[nH]cc(CCc3ccc(C(=O)N[C@@H](CCC(=O)O)C(=O)O)cc3)c2c(=O)[nH]1 [Pemetrexed] (partner 0.2 µM)
Outline: as §1

Row | Cell Line | relative viability ([1]; first compound 0.08 µM) | relative viability ([1]; first compound 0.253 µM) | relative viability ([1]; first compound 0.8 µM) | relative viability ([1]; first compound 2.53 µM) | relative viability ([2]; first compound 0.08 µM) | relative viability ([2]; first compound 0.253 µM) | relative viability ([2]; first compound 0.8 µM) | relative viability ([2]; first compound 2.53 µM) | relative viability ([3]; first compound 0.08 µM) | relative viability ([3]; first compound 0.253 µM) | relative viability ([3]; first compound 0.8 µM) | relative viability ([3]; first compound 2.53 µM) | relative viability ([4]; first compound 0.08 µM) | relative viability ([4]; first compound 0.253 µM) | relative viability ([4]; first compound 0.8 µM) | relative viability ([4]; first compound 2.53 µM) | relative viability ([5]; first compound 0.08 µM) | relative viability ([5]; first compound 0.253 µM) | relative viability ([5]; first compound 0.8 µM) | relative viability ([5]; first compound 2.53 µM)
1 | 201T | 0.419 | 0.364 | 0.342 | 0.366 | 1.15 | 1.07 | 1.05 | 1.09 | 1.06 | 1.03 | 0.998 | 1.03 | 0.766 | 0.73 | 0.515 | 0.702 | 0.347 | 0.322 | 0.279 | 0.331
2 | A549 |  |  |  |  |  |  |  |  | 0.916 | 1.01 | 1.01 | 1 | 0.495 | 0.481 | 0.48 | 0.357 |  |  |  | 
3 | A-427 | 0.593 | 0.492 | 0.474 | 0.524 | 1.12 | 0.962 | 0.876 | 0.97 | 1.08 | 1.03 | 0.983 | 0.929 | 0.866 | 0.677 | 0.617 | 0.865 | 1.17 | 0.897 | 0.954 | 1
4 | ABC-1 | 0.713 | 0.642 | 0.498 | 0.553 | 0.364 | 0.272 | 0.244 | 0.23 | 1.3 | 1.06 |  | 0.931 | 0.838 | 0.636 | 0.757 | 0.631 |  |  |  | 
5 | BEN | 0.497 | 0.484 | 0.441 | 0.545 | 0.926 | 0.781 | 0.686 | 0.771 | 0.707 | 0.699 | 0.703 | 0.708 | 0.553 | 0.601 | 0.617 | 0.581 | 0.985 | 0.72 | 0.776 | 0.796
6 | CAL-12T | 0.713 | 0.335 | 0.451 | 0.352 | 1.27 | 0.931 | 0.907 | 0.958 | 0.623 | 0.675 | 0.616 | 0.947 | 0.43 | 0.321 | 0.575 | 0.544 | 1.2 | 1.06 | 1.09 | 0.921
7 | COR-L23 | 0.292 | 0.242 | 0.201 | 0.192 | 0.83 | 1.02 | 0.908 | 0.746 | 1.08 | 0.962 | 0.514 | 0.743 | 0.71 | 0.668 | 0.485 | 0.627 | 0.181 | 0.179 | 0.174 | 0.21
8 | COR-L 105 | 0.408 | 0.441 | 0.353 | 0.489 | 1.38 | 0.771 | 0.795 | 0.322 | 0.432 | 0.362 | 0.312 | 0.281 | 0.52 | 0.398 | 0.361 | 0.275 | 1.13 | 1.22 | 1.26 | 1.13
9 | ChaGo-K-1 | 0.947 | 0.908 | 0.914 | 0.964 | 1.32 | 0.882 | 1.01 | 0.757 |  |  |  |  | 0.756 | 0.67 | 0.808 | 0.584 | 0.255 | 0.266 | 0.261 | 0.264
10 | EKVX | 0.402 |  | 0.291 | 0.393 | 1.1 | 1.01 | 1.04 | 1.2 | 0.201 | 0.183 | 0.228 | 0.245 | 0.483 | 0.429 | 0.413 | 0.446 | 0.499 |  | 0.302 | 0.368
11 | EMC-BAC-2 | 0.515 | 0.494 | 0.484 | 0.525 | 1.12 | 1.01 | 0.956 | 1.1 | 0.894 | 0.888 | 0.859 | 0.934 | 0.587 | 0.538 | 0.507 | 0.54 | 0.47 | 0.395 | 0.406 | 0.486
12 | EPLC-272H | 0.321 | 0.318 | 0.343 | 0.341 | 1.07 | 0.86 | 0.868 | 0.831 | 1.1 | 0.842 | 0.933 | 0.762 | 0.322 | 0.347 | 0.276 | 0.27 | 0.275 | 0.318 | 0.338 | 0.276
13 | H3255 | 0.37 | 0.313 | 0.308 | 0.329 | 1.46 | 0.812 | 0.708 | 0.801 | 0.259 | 0.267 | 0.224 | 0.277 | 0.585 | 0.511 | 0.446 | 0.529 | 0.682 | 0.537 | 0.555 | 0.559
14 | HARA | 0.288 | 0.194 | 0.225 | 0.263 | 1.28 | 1.11 | 1.04 | 1.2 | 0.93 | 0.625 | 0.6 | 0.856 | 0.645 | 0.362 | 0.288 | 0.35 | 0.239 | 0.205 | 0.227 | 0.232
15 | HCC-15 | 0.832 | 0.721 | 0.675 | 0.844 | 1.11 | 1 | 0.978 | 0.862 | 0.983 | 0.843 | 0.81 | 0.816 | 0.764 | 0.695 | 0.584 | 0.661 | 0.219 | 0.208 | 0.207 | 0.211
16 | HCC-44 | 0.898 | 0.976 | 0.798 | 0.951 | 0.975 | 0.905 | 0.781 | 0.995 | 1.13 | 0.743 | 0.792 | 1.02 | 0.815 | 0.615 | 0.472 | 0.752 | 0.606 | 0.602 | 0.581 | 0.622
